Where a name gives a salt, the structure may show the parent alone. Read-outs that look alike come from different tables or passages of the source.
Assays:
[1] = molecular target: Isdop2 (Ixodes scapularis, UniProt A0ACM8DGL0); test: cell-based; details: for inhibition at 10 µM: read-out: % Inhibition (of response to dopamine), Isdop2 screen
[2] = molecular target: T1, AaDOP2 (Aedes aegypti, UniProt H6D5H2); test: LOPAC1280 antagonist screen in HEK-CRELuc-Aadop2 cells; assay type: cell-based; details: for % inhibition of DA activity (Aedes cell-based assay screen): LOPAC1280 screen hits
[3] = tested on: Ae. aegypti L3 larvae; test: whole plant or invertebrate; details: Aedes aegypti
[4] = molecular target: T1, AaDOP2; test: HTRF cAMP accumulation concentration response assay (Cisbio Dynamic 2); assay type: cell-based
[5] = 10 μM compound, 300 nM dopamine, quadruplicate
[6] = 24 h, read-out: Toxicity to Aedes aegypti larvae (mortality) 24 hours, 400 μM, L3 larvae, three independent experiments
[7] = 48 h, read-out: Toxicity to Aedes aegypti larvae (mortality) 48 hours, 400 μM, L3 larvae, three independent experiments
[8] = 72 h, read-out: Toxicity to Aedes aegypti larvae (mortality) 72 hours, 400 μM, L3 larvae, three independent experiments
[9] = AaDOP2 expressing cells in the presence of dopamine, No Inhibition = <10% inhibition at 3 μM test compound, read-out: IC50 ± S.E.M. (nM), HTRF cAMP assay
[10] = 10 μM compound, footnote 3 mM dopamine
[11] = AaDOP2 expressing cells in the presence of dopamine, No Inhibition = <10% inhibition at 3 μM test compound
[12] = in vitro Concentration Response Curve assay, n = 2, relative to control antagonist Amitriptyline, read-out: Avg IC50

T1 sequence (H6D5H2 entry or part of it): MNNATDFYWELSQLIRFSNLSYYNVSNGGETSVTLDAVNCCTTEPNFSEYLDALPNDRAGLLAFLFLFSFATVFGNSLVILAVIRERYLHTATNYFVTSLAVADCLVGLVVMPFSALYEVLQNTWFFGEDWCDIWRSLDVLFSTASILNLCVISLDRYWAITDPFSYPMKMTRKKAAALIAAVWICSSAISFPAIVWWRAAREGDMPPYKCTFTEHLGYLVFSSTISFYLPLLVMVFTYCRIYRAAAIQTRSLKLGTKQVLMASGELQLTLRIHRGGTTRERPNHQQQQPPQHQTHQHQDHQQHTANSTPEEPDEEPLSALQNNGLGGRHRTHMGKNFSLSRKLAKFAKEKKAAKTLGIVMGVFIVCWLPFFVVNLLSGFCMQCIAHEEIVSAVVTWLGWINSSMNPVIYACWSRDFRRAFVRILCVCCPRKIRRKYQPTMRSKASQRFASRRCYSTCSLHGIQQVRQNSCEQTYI
Isdop2, sequence (A0ACM8DGL0 entry or part of it): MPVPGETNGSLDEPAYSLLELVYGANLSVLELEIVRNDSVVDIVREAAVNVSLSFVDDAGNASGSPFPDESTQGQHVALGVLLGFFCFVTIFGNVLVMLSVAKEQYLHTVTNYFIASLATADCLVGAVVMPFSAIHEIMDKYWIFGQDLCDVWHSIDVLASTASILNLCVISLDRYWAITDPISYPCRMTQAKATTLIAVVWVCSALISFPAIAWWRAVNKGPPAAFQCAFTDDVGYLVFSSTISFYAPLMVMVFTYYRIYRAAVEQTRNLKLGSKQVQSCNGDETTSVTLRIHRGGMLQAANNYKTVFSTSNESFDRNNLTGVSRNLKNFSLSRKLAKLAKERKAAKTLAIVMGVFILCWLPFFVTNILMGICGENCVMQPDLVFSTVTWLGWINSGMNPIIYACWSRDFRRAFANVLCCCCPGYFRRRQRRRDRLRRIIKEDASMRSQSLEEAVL

## O=C1C(SCCO)=C(SCCO)C(=O)c2ccccc21 [NSC 95397]
[1]
  % Inhibition (of response to dopamine), Isdop2 screen: 93%
[2]; [5]
  % of the SCH23390 effect: 83%

## CNCCCN1c2ccccc2CCc2ccccc21 [Desipramine]
[3]; [6]
  mortality at 400 µM: 30%
[3]; [7]
  mortality at 400 µM: 40%
[3]; [8]
  mortality at 400 µM: 43%
[4]; [9]
  IC50: 3300 nM

## CN1CCC(=C2c3ccccc3CC(=O)c3sccc32)CC1 [Ketotifen, 4-(1-methylpiperidin-4-ylidene)-4,9-dihydro-10H-benzo[4,5]cyclohepta[1,2-b]thiophen-10-one]
[4]; [9]
  IC50: 750 ± 180 nM
[2]; [5]
  % of the SCH23390 effect: 96%
[2]
  % inhibition of DA activity (Aedes cell-based assay screen): 96%

## CC[C@@]1(O)C(=O)OCc2c1cc1n(c2=O)Cc2cc3ccccc3nc2-1 [(S)-(+)-Camptothecin]
[1]; [10]
  % Inhibition (of response to dopamine), Isdop2 screen: 97%
[2]; [5]
  % of the SCH23390 effect: 93%

## CC1(C)CCC2=C(O1)c1ccccc1C(=O)C2=O [beta-Lapachone]
[2]; [5]
  % of the SCH23390 effect: 86%

## OCCN1CCN(CCCN2c3ccccc3Sc3ccc(Cl)cc32)CC1 [Perphenazine, 2-[4-[3-(2-chloro-10H-phenothiazin-10-yl)propyl]piperazin-1-yl]ethanol]
[1]
  inhibition at 10 µM: 76%
[4]; Avg IC50 (μM), in vitro Concentration Response Curve assay, n = 2, relative to control antagonist Amitriptyline
  IC50: 101 nM
[2]; [5]
  % of the SCH23390 effect: 95%
[2]
  % inhibition of DA activity (Aedes cell-based assay screen): 95%

## CC(=O)[C@]1(O)Cc2c(O)c3c(c(O)c2[C@@H](O[C@H]2C[C@H](N)[C@H](O)[C@H](C)O2)C1)C(=O)c1ccccc1C3=O [Idarubicin]
[1]
  inhibition at 10 µM: 97%
[2]
  % of the SCH23390 effect: 83%

## O=C(Nc1ccc([N+](=O)[O-])cc1Cl)c1cc(Cl)ccc1O [Niclosamide]
[1]
  inhibition at 10 µM: 100%
[2]; [5]
  % of the SCH23390 effect: 95%

## Cc1nc2ccccn2c(=O)c1CCN1CCC(C(=O)c2ccc(F)cc2)CC1 [Pirenperone, 3-[2-[4-(p-fluorobenzoyl)piperidino]ethyl]-2-methyl-4h-pyrido[1,2-a]pyrimidin-4-one]
[1]
  inhibition at 10 µM: 87%
[2]; [5]
  % of the SCH23390 effect: 90%
[2]
  % inhibition of DA activity (Aedes cell-based assay screen): 90%

## Oc1cc(O)cc(/C=C/c2ccc(O)c(O)c2)c1 [Piceatannol]
[1]
  inhibition at 10 µM: 100%
[2]; [5]
  % of the SCH23390 effect: 98%

## CN(C)CCCN1c2ccccc2Sc2ccccc21 [Promazine, N,N-dimethyl-3-(10H-phenothiazin-10-yl)-propan-1-amine]
[1]
  inhibition at 10 µM: 87%
[2]
  % of the SCH23390 effect: 88%
  % inhibition of DA activity (Aedes cell-based assay screen): 88%

## CCC(=O)c1ccc2c(c1)N(CCCN(C)C)c1ccccc1S2 [Propionylpromazine, 1-[10-[3-(dimethylamino)propyl]phenothiazin-2-yl]propan-1-one]
[1]
  inhibition at 10 µM: 94%
[2]; [5]
  % of the SCH23390 effect: 85%
[2]
  % inhibition of DA activity (Aedes cell-based assay screen): 85%

## CN1CCN(CC/C=C2/c3ccccc3Sc3ccc(S(=O)(=O)N(C)C)cc32)CC1 [Thiothixene, (9Z)-N,N-dimethyl-9-[3-(4-methylpiperazin-1-yl)propylidene]-9H-thioxanthene-2-sulfonamide]
[1]
  inhibition at 10 µM: 87%
[2]
  % of the SCH23390 effect: 86%
  % inhibition of DA activity (Aedes cell-based assay screen): 86%

## CC[C@H]1CN2CCc3cc(OC)c(OC)cc3[C@@H]2C[C@@H]1C[C@H]1NCCc2cc(OC)c(OC)cc21 [Emetine dihydrochloride hydrate]
[1]
  inhibition at 10 µM: 100%
[2]
  % of the SCH23390 effect: 86%

## Cc1nc2sccn2c(=O)c1CCN1CCC(=C(c2ccccc2)c2ccc(F)cc2)CC1 [Diacylglycerol kinase inhibitor I]
[1]
  % Inhibition (of response to dopamine), Isdop2 screen: 69%
[2]; [5]
  % of the SCH23390 effect: 90%

## CN1C2CCC1CC(OC(c1ccccc1)c1ccc(Cl)cc1)C2.Cl (stereo not drawn) [4′-Chloro-3-alpha-(diphenylmethoxy) tropane hydrochloride]
[1]; [10]
  % Inhibition (of response to dopamine), Isdop2 screen: 80%
[2]; [5]
  % of the SCH23390 effect: 85%

## CN(C)CCCN1c2ccccc2Sc2ccc(C(F)(F)F)cc21 [Triflupromazine, N,N-dimethyl-3-[2-(trifluoromethyl)-10H-phenothiazin-10-yl]propan-1-amine]
[1]
  inhibition at 10 µM: 83%
[2]
  % of the SCH23390 effect: 88%
  % inhibition of DA activity (Aedes cell-based assay screen): 88%

## O=C1Cc2c([nH]c3ccc(Br)cc23)-c2ccccc2N1 [Kenpaullone]
[1]
  inhibition at 10 µM: 68%
[2]; [5]
  % of the SCH23390 effect: 83%

## CC(C)[C@H](CO)Nc1nc(Nc2cccc(Cl)c2)c2ncn(C(C)C)c2n1 [Purvalanol A]
[1]
  % Inhibition (of response to dopamine), Isdop2 screen: 84%
[2]; [5]
  % of the SCH23390 effect: 93%

## CC1(C)C(=O)N(CCN2CCC(C(=O)c3ccc(F)cc3)CC2)c2ccccc21.Cl [LY310762, 1-[2-[4-(4-fluorobenzoyl)piperidin-1-yl]ethyl]-3,3-dimethylindol-2-one]
[3]; 0.5 h, read-out: percent mortality 0.5 hr, 400 uM, L3 larvae, value for this scoring time
  mortality at 400 µM: 0%
[3]; 1 h, read-out: percent mortality 1 hr, 400 uM, L3 larvae, per scoring time
  mortality at 400 µM: 0%
[3]; 2 h, read-out: percent mortality 2 hr, 400 uM, L3 larvae, per scoring time
  mortality at 400 µM: 0%
[3]; 3 h, read-out: percent mortality 3 hr, 400 uM, L3 larvae, per scoring time
  mortality at 400 µM: 0%
[3]; 4 h, read-out: percent mortality 4 hr, 400 uM, L3 larvae, per scoring time
  mortality at 400 µM: 0%
[3]; [6]
  mortality at 400 µM: 0%
[3]; 24 h, read-out: percent mortality 24 hr, 400 uM, L3 larvae, per scoring time
  mortality at 400 µM: 0%
[3]; [7]
  mortality at 400 µM: 3%
[3]; 48 h, read-out: percent mortality 48 hr, 400 uM, L3 larvae, per scoring time
  mortality at 400 µM: 10%
[3]; 72 h, read-out: Cumulative % Mortality (72 hrs), 400 uM, L3 larvae
  mortality at 400 µM: 10%
[3]; [8]
  mortality at 400 µM: 3%
[3]; 72 h, read-out: percent mortality 72 hr, 400 uM, L3 larvae, per scoring time
  mortality at 400 µM: 0%
[3]; […], read-out: percent mortality […], 400 uM, L3 larvae, per scoring time
  mortality at 400 µM: 0%
[1]
  inhibition at 10 µM: 72%
[2]
  % of the SCH23390 effect: 81%
  % inhibition of DA activity (Aedes cell-based assay screen): 81%

## CN1CCc2ccccc2Cc2[nH]c3ccccc3c2CC1 [LE 300, 7-Methyl-6,7,8,9,14,15-hexahydro-5H-benz[d]indolo[2,3-g]azecine]
[1]
  inhibition at 10 µM: 100%
[2]
  % of the SCH23390 effect: 99%
  % inhibition of DA activity (Aedes cell-based assay screen): 99%

## Cc1nc2sccn2c(=O)c1CCN1CCC(=C(c2ccc(F)cc2)c2ccc(F)cc2)CC1 [Ritanserin, 6-[2-[4-[bis(4-fluorophenyl)methylidene]piperidin-1-yl]ethyl]-7-methyl-[1,3]thiazolo[2,3-b]pyrimidin-5-one]
[1]
  inhibition at 10 µM: 77%
[2]; [5]
  % of the SCH23390 effect: 83%
[2]
  % inhibition of DA activity (Aedes cell-based assay screen): 83%

## CNCC[C@@H](Oc1ccccc1C)c1ccccc1 [Atomoxetine]
[3]; [6]
  mortality at 400 µM: 20%
[3]; [7]
  mortality at 400 µM: 30%
[3]; [8]
  mortality at 400 µM: 30%
[4]; [11]
  IC50 ± S.E.M. (nM), HTRF cAMP assay: No Inhibition^a

## O=C1c2c(O)ccc(O)c2C(=O)c2c(NCCNCCO)ccc(NCCNCCO)c21 [Mitoxantrone]
[2]; [5]
  % of the SCH23390 effect: 83%

## CC(CN(C)C)CN1c2ccccc2CCc2ccccc21 (racemic) [Trimipramine, (±)-3-(10,11-dihydro-5H-dibenzo[b,f]azepin-5-yl)-N,N,2-trimethylpropan-1-]
[1]
  inhibition at 10 µM: 86%
[2]; [5]
  % of the SCH23390 effect: 87%
[2]
  % inhibition of DA activity (Aedes cell-based assay screen): 87%

## COc1ccc(C(CN(C)C)C2(O)CCCCC2)cc1 (stereo not shown) [Venlafaxine]
[3]; [6]
  mortality at 400 µM: 3%
[3]; [7]
  mortality at 400 µM: 7%
[3]; [8]
  mortality at 400 µM: 13%
[4]; [11]
  IC50 ± S.E.M. (nM), HTRF cAMP assay: No Inhibition^a

## COc1cc(OC)cc(C(=O)Nc2ccc(Nc3nc(C)cc(Nc4ccccc4)n3)cc2)c1 [Compound G869-0121, 3,5-dimethoxy-N-(4-((4-methyl-6-(phenylamino)pyrimidin-2-yl)amino)phenyl)benzamide]
[4]; [12]
  IC50: 2220 nM

## CCCCCCCCCCCCCC(=O)O[C@@H]1[C@@H](C)[C@@]2(O)[C@@H](C=C(CO)C[C@]3(O)C(=O)C(C)=C[C@@H]23)[C@@H]2C(C)(C)[C@]12OC(C)=O [Phorbol 12-myristate 13-acetate]
[1]
  % Inhibition (of response to dopamine), Isdop2 screen: 75%
[2]
  % of the SCH23390 effect: 88%

## CN1CCN(c2nc(Nc3ccc4c(c3)OCO4)c3cnn(-c4ccccc4)c3n2)CC1 [Compound G932-0818, N-(benzo[d][1,3]dioxol-5-yl)-6-(4-methylpiperazin-1-yl)-1-phenyl-1H-pyrazolo[3,4-d]pyrimidin-4-amine]
[4]; [12]
  IC50: 1650 nM

## CN(C)CCOc1ccc(/C(=C(/CCCl)c2ccccc2)c2ccccc2)cc1 [Toremifene citrate salt, (Z)-2-(4-(4-Chloro-1,2-diphenyl-1-butenyl)phenoxy)-N,N-dimethylethanamine]
[4]
  IC50: 44900 nM

## CN1CCN(c2nc(Nc3ccc(Cl)cc3)c3cnn(-c4ccccc4)c3n2)CC1 [Compound G932-0379, N-(4-chlorophenyl)-6-(4-methylpiperazin-1-yl)-1-phenyl-1H-pyrazolo[3,4-d]pyrimidin-4-amine]
[4]; [12]
  IC50: 3980 nM

## COCCCC/C(=N\OCCN)c1ccc(C(F)(F)F)cc1 [Fluvoxamine]
[3]; [6]
  mortality at 400 µM: 27%
[3]; [7]
  mortality at 400 µM: 33%
[3]; [8]
  mortality at 400 µM: 43%
[4]; [11]
  IC50 ± S.E.M. (nM), HTRF cAMP assay: No Inhibition^a

Reference: US20140350081A1, “INSECT G-COUPLED RECEPTORS USEFUL AS TARGETS FOR INSECTICIDES AND COMPOUNDS AND REAGENTS IDENTIFIED USING THE SAME” (priority 2011, published 2014)
